# Test results taken from PMC3997506, “Novel PPAR Pan Agonist, ZBH Ameliorates Hyperlipidemia and Insulin Resistance in High Fat Diet Induced Hyperlipidemic Hamster” (PLoS ONE, 2014).
# How the values were obtained:
# [1] = biological target: T1, hPPARγ-LBD (Homo sapiens, UniProt P37231); assay: Ligand binding assay with SPR (Biacore T100); settings: steady state affinity fitting
# T1 construct: purchased Cayman chemical
# T1 sequence (P37231 238-503 limits assumed): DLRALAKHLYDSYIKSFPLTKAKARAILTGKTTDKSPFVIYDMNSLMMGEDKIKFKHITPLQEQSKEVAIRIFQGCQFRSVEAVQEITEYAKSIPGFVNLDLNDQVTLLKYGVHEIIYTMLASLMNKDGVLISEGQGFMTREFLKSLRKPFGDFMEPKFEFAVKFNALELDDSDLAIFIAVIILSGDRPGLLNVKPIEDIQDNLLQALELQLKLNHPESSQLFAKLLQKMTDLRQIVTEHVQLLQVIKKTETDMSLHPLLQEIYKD
# Protocol: (§1) The binding affinities of ZBH for PPARα-LBD, PPARδ-LBD or PPARγ-LBD (Cayman chemical, MI, USA) were assayed using SPR-based Biacore T100 (GE Healthcare/Biacore, Uppsala, Sweden) as described previously, [20].
# [2] = biological target: T2, hPPARδ-LBD (Homo sapiens, UniProt Q03181); assay: Ligand binding assay with SPR (Biacore T100); settings: steady state affinity fitting
# T2 construct: purchased Cayman chemical
# T2 sequence (Q03181 211-439 limits assumed): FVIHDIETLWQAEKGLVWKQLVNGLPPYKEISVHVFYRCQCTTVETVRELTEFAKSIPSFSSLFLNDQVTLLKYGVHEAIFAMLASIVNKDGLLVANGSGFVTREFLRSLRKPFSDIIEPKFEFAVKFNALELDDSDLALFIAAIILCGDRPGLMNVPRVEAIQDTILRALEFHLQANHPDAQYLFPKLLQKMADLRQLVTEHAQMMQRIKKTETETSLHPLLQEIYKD
# Protocol: as §1
# [3] = biological target: T3, SIRT1 (Homo sapiens, UniProt Q96EB6); assay: SIRT1 enzyme activity assay (Direct Fluorescent Screening Assay kit); type: biochemical; settings: read-out: SIRT1 maximal activation
# T3 construct: purchased Cayman chemical
# T3 sequence (Q96EB6 1-747): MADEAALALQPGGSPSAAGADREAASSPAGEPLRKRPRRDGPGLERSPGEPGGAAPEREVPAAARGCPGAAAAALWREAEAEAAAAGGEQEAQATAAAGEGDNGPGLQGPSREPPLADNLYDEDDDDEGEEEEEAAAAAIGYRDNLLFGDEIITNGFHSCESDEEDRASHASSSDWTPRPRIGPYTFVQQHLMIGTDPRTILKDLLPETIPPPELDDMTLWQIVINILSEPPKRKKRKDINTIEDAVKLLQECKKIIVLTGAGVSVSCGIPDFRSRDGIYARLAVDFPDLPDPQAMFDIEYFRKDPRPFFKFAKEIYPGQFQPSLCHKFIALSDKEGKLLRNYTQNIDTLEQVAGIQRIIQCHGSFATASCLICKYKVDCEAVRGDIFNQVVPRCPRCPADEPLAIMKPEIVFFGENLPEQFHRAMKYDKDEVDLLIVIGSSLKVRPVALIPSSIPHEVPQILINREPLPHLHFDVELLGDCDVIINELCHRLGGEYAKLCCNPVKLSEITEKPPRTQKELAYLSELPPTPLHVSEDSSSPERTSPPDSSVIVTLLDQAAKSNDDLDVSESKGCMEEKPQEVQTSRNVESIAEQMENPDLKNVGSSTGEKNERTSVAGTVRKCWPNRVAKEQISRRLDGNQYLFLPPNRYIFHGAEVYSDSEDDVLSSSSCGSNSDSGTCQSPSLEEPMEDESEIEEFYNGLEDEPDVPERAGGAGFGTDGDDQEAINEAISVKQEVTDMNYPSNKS
# Protocol: SIRT1 enzyme activity was assayed with the SIRT1 Direct Fluorescent Screening Assay kit (Cayman chemical, MI, USA), according to the manufacturer’s instructions. Fluorescence was measured on an EnVision Multilabel Plate Reader (PerkinElmer, CA, USA). DMSO was used as a negative control and also as a solvent for resveratrol and ZBH.
# Figure 4 Activation of SIRT1 by ZBH. SIRT1 enzyme activity was measured after treatment with ZBH and Resveratrol, and the fluorescence was tested on EnVision Multilabel Plate Reader. Values are mean±SE, n = 3.
# [4] = test system: hyperlipidemic hamsters; assay: High fat diet induced hyperlipidemic hamster, 5-week oral treatment; type: in vivo, golden Syrian hamsters (Mesocricetus auratus)
# Excerpt: Male golden Syrian hamsters (Mesocricetus auratus) weighing 90–110 g were purchased from Vital River Laboratory Animal Technology Co. Ltd. (Beijing, China). Animals were maintained on a 12-h day/night schedule with ad libitum access to nutrition and water. […] Blood samples were taken after overnight fasting from the suborbital sinus under light sevoflurane anesthesia on the fifth and tenth day for measurement of serum total cholesterol (TC) and triglyceride (TG). […] The dose selection of ZBH was based on previous pilot study. Hamsters with standard rodent diet were used as normal control. Compounds were dissolved in DMSO and suspended in 0.5% methylcellulose and administered by gavage once a day for 5 weeks. Individual body weight and cage food consumption were measured every two days. Dynamic serum lipid monitoring was performed weekly and blood samples were taken from the retro-orbital venous plexus under light ether anesthesia using a glass capillary tube after overnight fasting. Then the animal were sacrificed by cervical decapitation under anesthesia, and the liver, heart, epididymal white adipose tissue (eWAT) and gastrocnemius muscle were excised, rapidly frozen in liquid nitrogen and maintained at −80°C until analysis. Serum TC, TG and free fatty acids (FFA) were measured by using commercial kit (Nanjing Jiancheng, Bioengineering Institute, Nanjing, China) as previously described. Serum glucose, low-density lipoprotein cholesterol (LDLc) and high-density lipoprotein cholesterol (HDLc) were measured with the Hitachi 917 automated biochemistry analyzer (Roche diagnostics, Indianapolis, USA). Serum insulin was quantified by ELISA using a hamster insulin assay kit (Crystal Chem Inc., IL, and USA). The insulin sensitivity index (ISI) was calculated by the values of fasting blood glucose (FBG) and fasting blood insulin (FBI). ISI = 1/(FBG×FBI) 1000 [21]. […] After evaporation of the chloroform under nitrogen, lipid samples were resuspended in isopropyl alcohol, and TG and TC content was determined by enzymatic assay. […] Frozen liver samples were used to perform hepatic lipid specific staining with Oil Red O staining.
smiles,measurement,setting,value
"COc1ccc(/C=C/c2cc(OC)cc(OCCCC(C)(C)C(=O)O)c2)cc1 [ZBH, (E)-5-(3-methoxy-5-(4-methoxystyryl)phenoxy) -2,2-dimethylpentanoic acid]",Kd,[1],3.9 µM
same,Kd,[2],4.17 µM
same,Emax,[3],136%
same,Kidney weight,"[4]; 6.25 mg/kg, 5 weeks",1.01 ± 0.08 g
same,Liver weight,"[4]; 6.25 mg/kg, 5 weeks",7.78 ± 0.23 g
same,Retroperitoneal WAT,"[4]; 6.25 mg/kg, 5 weeks",13.93 ± 0.82 g
same,Subcutaneous WAT,"[4]; 6.25 mg/kg, 5 weeks",7.28 ± 0.32 g
same,iBAT,"[4]; 6.25 mg/kg, 5 weeks",0.23 ± 0.01 g
same,Kidney weight,"[4]; 12.5 mg/kg, 5 weeks",0.95 ± 0.09 g
same,Liver weight,"[4]; 12.5 mg/kg, 5 weeks",7.77 ± 0.31 g
same,Retroperitoneal WAT,"[4]; 12.5 mg/kg, 5 weeks",12.63 ± 0.66 g
same,Subcutaneous WAT,"[4]; 12.5 mg/kg, 5 weeks",6.53 ± 0.42 g
same,iBAT,"[4]; 12.5 mg/kg, 5 weeks",0.21 ± 0.01 g
same,maximum decrease in serum insulin levels,"[4]; 25 mg kg^−1, 5 weeks",84%
same,serum FFA,"[4]; 25 mg kg^−1, after one-week treatment until the end",lowered remarkably
same,Kidney weight,"[4]; 25 mg/kg, 5 weeks",0.94 ± 0.05 g
same,Liver weight,"[4]; 25 mg/kg, 5 weeks",8.52 ± 0.45 g
same,Retroperitoneal WAT,"[4]; 25 mg/kg, 5 weeks",10.43 ± 0.39 g
same,Subcutaneous WAT,"[4]; 25 mg/kg, 5 weeks",5.19 ± 0.12 g
same,iBAT,"[4]; 25 mg/kg, 5 weeks",0.19 ± 0.01 g
same,hepatic TG contents / hepatic steatosis,"[4]; 5 weeks, Figure 7",greatly lowered
same,"serum GOT, GPT, CK and creatinine levels","[4]; 5 weeks, Figure S1",not altered
same,increase of the weight of the liver,"[4]; 6.25-25 mg/kg, after 5 weeks, vs MC",7%∼17
same,"serum TG, TC and LDLc",[4]; 12.5 or 25 mg kg^−1,time and dose-dependent decrease
same,impact on food intake,[4]; Figure 5B,negligible
same,body weight gain,"[4]; ZBH 25 mg/kg, bezafibrate 50 mg/kg, Figure 5A",gained less weight
same,increase in relative liver weight,"[4]; highest dose, relative to MC",17%
